From PubChem BioAssay (NCI)
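Method: 48-hour compound exposure of cells in 96-well plates, five concentrations, linear interpolation of endpoints. Definition used: TGI = concentration required for complete inhibition of growth.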

Assays:
Experiment in all cases: NCI anticancer screen, dose series, 48 h
786-0 renal = test system: 786-0 renal
A498 renal = test system: A498 renal
A549 NSCLC = test system: A549 NSCLC
ACHN renal = test system: ACHN renal
BT-549 breast = test system: BT-549 breast
CAKI-1 renal = test system: CAKI-1 renal
CCRF-CEM leukemia = test system: CCRF-CEM leukemia
COLO 205 colon = test system: COLO 205 colon
DU-145 prostate = test system: DU-145 prostate
EKVX NSCLC = test system: EKVX NSCLC
HCC-2998 colon = test system: HCC-2998 colon
HCT-116 colon = test system: HCT-116 colon
HCT-15 colon = test system: HCT-15 colon
HL-60(TB) leukemia = test system: HL-60(TB) leukemia
HOP-62 NSCLC = test system: HOP-62 NSCLC
HOP-92 NSCLC = test system: HOP-92 NSCLC
HS 578T breast = test system: HS 578T breast
HT29 colon = test system: HT29 colon
IGROV1 ovarian = test system: IGROV1 ovarian
K-562 leukemia = test system: K-562 leukemia
KM12 colon = test system: KM12 colon
LOX IMVI melanoma = test system: LOX IMVI melanoma
M14 melanoma = test system: M14 melanoma
MALME-3M melanoma = test system: MALME-3M melanoma
MCF7 breast = test system: MCF7 breast
MDA-MB-231 breast = test system: MDA-MB-231 breast
MDA-MB-435 = test system: MDA-MB-435
MDA-N = test system: MDA-N
MOLT-4 leukemia = test system: MOLT-4 leukemia
NCI-H226 lung = test system: NCI-H226 lung
NCI-H23 lung = test system: NCI-H23 lung
NCI-H460 lung = test system: NCI-H460 lung
NCI-H522 lung = test system: NCI-H522 lung
NCI/ADR-RES ovarian = test system: NCI/ADR-RES ovarian
OVCAR-3 ovarian = test system: OVCAR-3 ovarian
OVCAR-4 ovarian = test system: OVCAR-4 ovarian
OVCAR-5 ovarian = test system: OVCAR-5 ovarian
OVCAR-8 ovarian = test system: OVCAR-8 ovarian
PC-3 prostate = test system: PC-3 prostate
RXF 393 renal = test system: RXF 393 renal
SF-268 CNS = test system: SF-268 CNS
SF-295 CNS = test system: SF-295 CNS
SF-539 CNS = test system: SF-539 CNS
SK-MEL-2 melanoma = test system: SK-MEL-2 melanoma
SK-MEL-28 melanoma = test system: SK-MEL-28 melanoma
SK-MEL-5 melanoma = test system: SK-MEL-5 melanoma
SK-OV-3 ovarian = test system: SK-OV-3 ovarian
SN12C renal = test system: SN12C renal
SNB-19 CNS = test system: SNB-19 CNS
SNB-75 CNS = test system: SNB-75 CNS
SW-620 colon = test system: SW-620 colon
T-47D breast = test system: T-47D breast
TK-10 renal = test system: TK-10 renal
U251 CNS = test system: U251 CNS
UACC-257 melanoma = test system: UACC-257 melanoma
UACC-62 melanoma = test system: UACC-62 melanoma
UO-31 renal = test system: UO-31 renal
RPMI-8226 leukemia = test system: RPMI-8226 leukemia

Cc1c2oc3c(C)cnc(C(=O)NC4C(=O)NC(C(C)C)C(=O)N5CCCC5C(=O)N(C)CC(=O)N(C)C(C(C)C)C(=O)OC4C)c3nc-2c(C(=O)NC2C(=O)NC(C(C)C)C(=O)N3CCCC3C(=O)N(C)CC(=O)N(C)C(C(C)C)C(=O)OC2C)c(N)c1=O (stereo not given) was tested. Which TGI (786-0 renal) did it give?
Its TGI is greater than 75 µM.

And the TGI (A498 renal)?
Its TGI is 29.8 µM.

What about the TGI (A549 NSCLC) of the same compound?
The TGI was greater than 75 µM.

What about the TGI (ACHN renal) of the same compound?
Its TGI is greater than 64.6 µM.

And the TGI (BT-549 breast)?
Its TGI is 33.5 µM.

And the TGI (CAKI-1 renal)?
The TGI was 73 µM.

And the TGI (CCRF-CEM leukemia)?
Its TGI is 5.44 µM.

And the TGI (COLO 205 colon)?
The TGI was 14.2 µM.

What about the TGI (DU-145 prostate) of the same compound?
Its TGI is greater than 75 µM.

What about the TGI (EKVX NSCLC) of the same compound?
Its TGI is greater than 75 µM.

And the TGI (HCC-2998 colon)?
Its TGI is 15.7 µM.

What about the TGI (HCT-116 colon) of the same compound?
Its TGI is greater than 35.5 µM.

What about the TGI (HCT-15 colon) of the same compound?
The TGI was greater than 75 µM.

And the TGI (HL-60(TB) leukemia)?
The TGI was greater than 26 µM.

What about the TGI (HOP-62 NSCLC) of the same compound?
The TGI was greater than 57.7 µM.

What about the TGI (HOP-92 NSCLC) of the same compound?
Its TGI is 36 µM.

And the TGI (HS 578T breast)?
The TGI was 19.5 µM.

And the TGI (HT29 colon)?
The TGI was greater than 75 µM.

What about the TGI (IGROV1 ovarian) of the same compound?
The TGI was greater than 75 µM.

And the TGI (K-562 leukemia)?
The TGI was 2.36 µM.

And the TGI (KM12 colon)?
The TGI was 61.1 µM.

And the TGI (LOX IMVI melanoma)?
The TGI was 10.3 µM.

And the TGI (M14 melanoma)?
Its TGI is 16.8 µM.

And the TGI (MALME-3M melanoma)?
The TGI was 16.6 µM.

What about the TGI (MCF7 breast) of the same compound?
The TGI was greater than 75 µM.

What about the TGI (MDA-MB-231 breast) of the same compound?
The TGI was 41.3 µM.

What about the TGI (MDA-MB-435) of the same compound?
The TGI was 16.7 µM.

What about the TGI (MDA-N) of the same compound?
Its TGI is 16.9 µM.

And the TGI (MOLT-4 leukemia)?
The TGI was 0.675 µM.

What about the TGI (NCI-H226 lung) of the same compound?
The TGI was 23.8 µM.

And the TGI (NCI-H23 lung)?
The TGI was greater than 54.8 µM.

What about the TGI (NCI-H460 lung) of the same compound?
Its TGI is greater than 24.6 µM.

And the TGI (NCI-H522 lung)?
The TGI was 18 µM.

What about the TGI (NCI/ADR-RES ovarian) of the same compound?
The TGI was greater than 75 µM.

And the TGI (OVCAR-3 ovarian)?
The TGI was greater than 58.2 µM.

What about the TGI (OVCAR-4 ovarian) of the same compound?
The TGI was 73.5 µM.

And the TGI (OVCAR-5 ovarian)?
The TGI was greater than 75 µM.

What about the TGI (OVCAR-8 ovarian) of the same compound?
The TGI was greater than 44.5 µM.

What about the TGI (PC-3 prostate) of the same compound?
Its TGI is greater than 47.1 µM.

What about the TGI (RXF 393 renal) of the same compound?
Its TGI is 18.8 µM.

What about the TGI (SF-268 CNS) of the same compound?
Its TGI is 24.4 µM.

And the TGI (SF-295 CNS)?
Its TGI is 39.9 µM.

What about the TGI (SF-539 CNS) of the same compound?
The TGI was 17.7 µM.

And the TGI (SK-MEL-2 melanoma)?
The TGI was 10.4 µM.

And the TGI (SK-MEL-28 melanoma)?
Its TGI is 30.3 µM.

And the TGI (SK-MEL-5 melanoma)?
The TGI was 21.6 µM.

And the TGI (SK-OV-3 ovarian)?
The TGI was 61.5 µM.

What about the TGI (SN12C renal) of the same compound?
Its TGI is greater than 70.1 µM.

What about the TGI (SNB-19 CNS) of the same compound?
Its TGI is greater than 68.4 µM.

What about the TGI (SNB-75 CNS) of the same compound?
Its TGI is 21.3 µM.

And the TGI (SW-620 colon)?
Its TGI is greater than 53.3 µM.

What about the TGI (T-47D breast) of the same compound?
Its TGI is greater than 53.4 µM.

And the TGI (TK-10 renal)?
Its TGI is greater than 75 µM.

What about the TGI (U251 CNS) of the same compound?
The TGI was greater than 38 µM.

What about the TGI (UACC-257 melanoma) of the same compound?
The TGI was 33.8 µM.

And the TGI (UACC-62 melanoma)?
Its TGI is 12.4 µM.

And the TGI (UO-31 renal)?
Its TGI is 51 µM.

Which TGI (786-0 renal) does the source give for CC(=O)Nc1c2sscc-2n(C)c1=O here?
Its TGI is 3.24 µM.

What about the TGI (A498 renal) of the same compound?
The TGI was 3.27 µM.

What about the TGI (A549 NSCLC) of the same compound?
The TGI was 3.56 µM.

What about the TGI (ACHN renal) of the same compound?
Its TGI is 12.1 µM.

And the TGI (BT-549 breast)?
The TGI was 2.76 µM.

What about the TGI (CAKI-1 renal) of the same compound?
Its TGI is 3.36 µM.

What about the TGI (CCRF-CEM leukemia) of the same compound?
Its TGI is 1.51 µM.

And the TGI (COLO 205 colon)?
Its TGI is 1.84 µM.

And the TGI (DU-145 prostate)?
The TGI was 5.54 µM.

What about the TGI (EKVX NSCLC) of the same compound?
The TGI was 3.68 µM.

What about the TGI (HCC-2998 colon) of the same compound?
The TGI was 1.89 µM.

And the TGI (HCT-116 colon)?
Its TGI is 1.96 µM.

What about the TGI (HCT-15 colon) of the same compound?
Its TGI is 2.66 µM.

What about the TGI (HL-60(TB) leukemia) of the same compound?
Its TGI is 5.9 µM.

And the TGI (HOP-62 NSCLC)?
Its TGI is 3.15 µM.

What about the TGI (HOP-92 NSCLC) of the same compound?
The TGI was 3.7 µM.

And the TGI (HS 578T breast)?
The TGI was 10.3 µM.

What about the TGI (HT29 colon) of the same compound?
Its TGI is 0.692 µM.

What about the TGI (IGROV1 ovarian) of the same compound?
The TGI was 4.65 µM.

What about the TGI (K-562 leukemia) of the same compound?
Its TGI is 5.71 µM.

What about the TGI (KM12 colon) of the same compound?
The TGI was 2.6 µM.

What about the TGI (LOX IMVI melanoma) of the same compound?
Its TGI is 3.39 µM.

And the TGI (M14 melanoma)?
Its TGI is 0.865 µM.

What about the TGI (MALME-3M melanoma) of the same compound?
The TGI was 2.19 µM.

What about the TGI (MCF7 breast) of the same compound?
The TGI was 1.69 µM.

And the TGI (MDA-MB-231 breast)?
Its TGI is 3.54 µM.

And the TGI (MDA-MB-435)?
The TGI was 2.51 µM.

And the TGI (MDA-N)?
The TGI was 3.13 µM.

What about the TGI (MOLT-4 leukemia) of the same compound?
Its TGI is 0.275 µM.

And the TGI (NCI-H226 lung)?
The TGI was 3.4 µM.

What about the TGI (NCI-H23 lung) of the same compound?
Its TGI is 2.28 µM.

And the TGI (NCI-H460 lung)?
The TGI was 1.32 µM.

And the TGI (NCI-H522 lung)?
The TGI was 2.65 µM.

What about the TGI (NCI/ADR-RES ovarian) of the same compound?
The TGI was 4.22 µM.

What about the TGI (OVCAR-3 ovarian) of the same compound?
Its TGI is 3.3 µM.

What about the TGI (OVCAR-4 ovarian) of the same compound?
Its TGI is 2.96 µM.

And the TGI (OVCAR-5 ovarian)?
The TGI was 3 µM.

And the TGI (OVCAR-8 ovarian)?
Its TGI is 1.36 µM.

What about the TGI (PC-3 prostate) of the same compound?
Its TGI is 2.97 µM.

What about the TGI (RPMI-8226 leukemia) of the same compound?
The TGI was 4.48 µM.

And the TGI (RXF 393 renal)?
The TGI was 3.18 µM.

What about the TGI (SF-268 CNS) of the same compound?
Its TGI is 3.09 µM.

And the TGI (SF-295 CNS)?
The TGI was 2.65 µM.

What about the TGI (SF-539 CNS) of the same compound?
The TGI was 3.52 µM.

What about the TGI (SK-MEL-2 melanoma) of the same compound?
Its TGI is 3.36 µM.

What about the TGI (SK-MEL-28 melanoma) of the same compound?
The TGI was 2.69 µM.

And the TGI (SK-MEL-5 melanoma)?
Its TGI is 3.38 µM.

And the TGI (SK-OV-3 ovarian)?
Its TGI is 2.84 µM.

What about the TGI (SN12C renal) of the same compound?
The TGI was 3.37 µM.

What about the TGI (SNB-19 CNS) of the same compound?
Its TGI is 3.45 µM.

And the TGI (SNB-75 CNS)?
Its TGI is 3.05 µM.

What about the TGI (SW-620 colon) of the same compound?
Its TGI is 1.83 µM.

What about the TGI (T-47D breast) of the same compound?
The TGI was 3.19 µM.

What about the TGI (TK-10 renal) of the same compound?
Its TGI is 4.83 µM.

What about the TGI (U251 CNS) of the same compound?
Its TGI is 2.54 µM.

And the TGI (UACC-257 melanoma)?
Its TGI is 2.97 µM.

And the TGI (UACC-62 melanoma)?
The TGI was 5.36 µM.

What about the TGI (UO-31 renal) of the same compound?
Its TGI is 3.58 µM.
